Source: ChEMBL document CHEMBL5356972, “Design and synthesis of cantharidin derivative DCZ5418 as a TRIP13 inhibitor with anti-multiple myeloma activity in vitro and in vivo” (Bioorg Med Chem Lett, 2024)
pIC50, pKd: −log10 of the molar value. The source made the active and inactive calls. The calls are words filed in the database; no cut-off is given here.

Columns and labels:
[1] = Inhibition of cell growth in human H929R cells at 10 uM incubated for 48 hrs by CCK-8 assay relative to control; type: functional
H929R [2] = test: Inhibition of cell growth in human H929R cells at 10 uM incubated for 48 hrs by CCK-8 assay; type: functional, cell-based
[3] = Acute toxicity in mouse assessed as reduction in spontaneous activities at 50 mg/kg, ip; type: organism-based; details: in vivo
[4] = Acute toxicity in mouse assessed as liver injury at 50 mg/kg, ip; type: organism-based; details: in vivo
[5] = target: T1, Pachytene checkpoint protein 2 homolog (Homo sapiens) (UniProt Q15645); test: Binding affinity to TRIP13 (unknown origin) by SPR analysis
T1 sequence (whole entry): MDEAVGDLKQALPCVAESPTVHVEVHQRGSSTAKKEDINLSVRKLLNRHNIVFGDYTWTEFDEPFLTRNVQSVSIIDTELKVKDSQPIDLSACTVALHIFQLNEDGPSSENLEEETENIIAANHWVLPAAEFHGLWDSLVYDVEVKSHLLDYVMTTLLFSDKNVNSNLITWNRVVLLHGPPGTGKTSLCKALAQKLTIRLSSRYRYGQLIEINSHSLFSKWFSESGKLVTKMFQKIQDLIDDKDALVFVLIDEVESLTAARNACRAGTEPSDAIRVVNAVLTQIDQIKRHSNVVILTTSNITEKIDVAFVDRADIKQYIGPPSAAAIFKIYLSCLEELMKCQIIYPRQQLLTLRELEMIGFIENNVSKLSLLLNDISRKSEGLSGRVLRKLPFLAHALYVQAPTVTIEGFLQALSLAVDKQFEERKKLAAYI

[6] = Acute toxicity in mouse assessed as kidney injury at 50 mg/kg, ip; type: organism-based; details: in vivo
[7] = target: T2, Pachytene checkpoint protein 2 homolog (Homo sapiens, UniProt Q15645); test: Binding affinity to TRIP13 (unknown origin) assessed as dissociation constant by SPR analysis
T2 sequence (Q15645 whole entry): T1 sequence (whole entry)

[8] = Toxicity in immunodeficient nude mouse xenografted with human H929R cells assessed as reduction in body weight at 15 mg/kg, ip administered once daily for 16 days; type: organism-based; details: in vivo, 384 h, time 16 day
H929R [9] = test: Antitumor activity against human H929R cells xenografted in immunodeficient nude mouse assessed as reduction in tumor growth at 15 mg/kg, ip administered once daily for 16 days by vernier caliper method; type: functional, organism-based; details: time 16.0 day
[10] = Inhibition of cell growth in human ARP-1 cells incubated for 48 hrs by CCK-8 assay; details: ARP-1, 48 h
[11] = Inhibition of cell growth in human H929R cells incubated for 48 hrs by CCK-8 assay
[12] = Inhibition of cell growth in human OCI-My5 cells incubated for 48 hrs by CCK-8 assay; details: OCI-My5, 48 h
[13] = Toxicity in immunodeficient nude mouse xenografted with human H929R cells assessed as reduction in body weight at 25 mg/kg, ip administered once daily for 16 days; type: organism-based; details: in vivo, 384 h, time 16 day
[14] = Acute toxicity in mouse assessed as abnormal behaviors at 50 mg/kg, ip; type: organism-based; details: in vivo
[15] = Acute toxicity in mouse assessed as heart injury at 50 mg/kg, ip; type: organism-based; details: in vivo
[16] = Inhibition of cell growth in human CD138-positive cells at 20 uM incubated for 48 hrs by CCK-8 assay relative to control; type: functional

## CN1CCN(C(=O)C2C3C=C(Br)C(O3)C2C(=O)Nc2ccc(Cc3ccncc3)cc2)CC1 (stereo unspecified)
[1]
  inhibition at 10 µM: 43.1%

## O=C1C2C3C=C(Br)C(O3)C2C(=O)N1c1ccc(Oc2ccncc2)cc1 (stereo unspecified)
H929R [2]
  inhibition: Active

## O=C(NCCCO)C1CCCCC1C(=O)Nc1ccc(Cc2ccncc2)cc1 (stereo unspecified)
[1]
  inhibition at 10 µM: 6.9%

## C[C@@]12C(=O)OC(=O)[C@]1(C)[C@H]1CC[C@@H]2O1 [CANTHARIDIN]
[3]
  Activity: Toxic
[4]
  Activity: Toxic
[5]
  Activity: inactive
[6]
  Activity: Toxic

## CN1CCN(C(=O)C2CCCCC2C(=O)Nc2ccc(Oc3ccncc3)cc2)CC1 (stereo unspecified)
H929R [2]
  inhibition: Active

## CN1CCN(C(=O)C2CCCCC2C(=O)Nc2ccc(Cc3ccncc3)cc2)CC1 (stereo unspecified)
[1]
  inhibition at 10 µM: 17.2%

## CN1CCN(C(=O)C2C3C=CC(O3)C2C(=O)Nc2ccc(Cc3ccncc3)cc2)CC1 (stereo unspecified)
[1]
  inhibition at 10 µM: 29.8%

## O=C1C2C3CCC(C3)C2C(=O)N1c1ccc(Cc2ccncc2)cc1 (stereo unspecified)
[5]
  Activity: inactive
[1]
  inhibition at 10 µM: 41.4%

## O=C1C2C3C=C(Br)C(O3)C2C(=O)N1c1ccc(Cc2ccncc2)cc1 (stereo unspecified)
[7]
  pKd: 3.83
[1]
  inhibition at 10 µM: 51.7%

## C[C@@]12C(=O)N(c3ccc(Cc4ccncc4)cc3)C(=O)[C@]1(C)[C@H]1CC[C@@H]2O1.Cl
[8]
  Activity: Non-Toxic

## C[C@@]12C(=O)N(c3ccc(Cc4ccncc4)cc3)C(=O)[C@]1(C)[C@H]1CC[C@@H]2O1 [listing 1 of 2 here]
H929R [9]
  Activity: Active

## O=C1C2C3C=CC(C4CC34)C2C(=O)N1c1ccc(Cc2ccncc2)cc1 (stereo unspecified)
[10]
  pIC50: 5.38
[11]
  pIC50: 5.87
[12]
  pIC50: 5.29
[1]
  inhibition at 10 µM: 28.2%
[13]
  Activity: Non-Toxic

## C[C@@]12C(=O)N(c3ccc(Cc4ccncc4)cc3)C(=O)[C@]1(C)[C@H]1CC[C@@H]2O1 [listing 2 of 2 here]
[10]
  pIC50: 5.50
[11]
  pIC50: 5.07
[12]
  pIC50: 5.36
[14]
  Activity: Non-Toxic
[4]
  Activity: Non-Toxic
[1]
  inhibition at 10 µM: 49.3%
[15]
  Activity: Non-Toxic
[6]
  Activity: Non-Toxic
[16]
  inhibition at 20 µM: 57%

## O=C(NCCCO)C1C2C=CC(O2)C1C(=O)Nc1ccc(Cc2ccncc2)cc1 (stereo unspecified)
[1]
  inhibition at 10 µM: 21.2%
